Among the data in a melting point compilation (Tetko et al.; mined from patent text by program, amines drawn as free bases though some values may be those of a salt) are melting point values, retold here.

With `Cc1nc2c(OCc3c(Cl)ccc(N(C)C(=O)CN)c3Cl)cccn2c1Br`, the melting point (usually the temperature of the solid-liquid transition) lay in the range of 175 to 178 °C.

In turn, `COC(=O)NC(CC(=O)c1ccccc1)C(=O)O` (stereo not drawn) came in with a melting point of 132 to 135 °C.

`CCCCCCCC(=O)OC(=C1C(=O)N(C(N)=O)c2cc(Cl)c(F)cc21)c1cccs1` gave a melting point of 149 to 150 °C.

For the compound `Cc1ccc(S(=O)(=O)NC2CCCCN(c3nc4c(c(=O)n(C)c(=O)n4C)n3Cc3ccccc3)C2)cc1` (stereo not drawn), the melting point lay in the range of 80.2 to 88.2 °C.

Take `CCOC(=O)Cn1c2ccc(Cl)ccc-2c(C(C)=O)c1=O`: the melting point was 184 °C.

`O=C(c1cc(-c2ccccc2)c(=O)n2c1-c1ccccc1CN2)N1CCOCC1` displayed a melting point of 254 to 257 °C.

As for `NC(=O)CC[C@H]1CN(c2ccc(C(=O)c3cnc4ccc(C(F)(F)F)cn34)cc2)C(=O)O1`, the melting point was 243 to 245 °C.

Consider `CCCCCCCCOC(=O)c1cc(C(C)(C)C)c(OC(=O)c2cc(C(C)(C)C)c(O)c(C(C)(C)C)c2)c(C(C)(C)C)c1`, for which the melting point lay in the range of 94 to 97 °C.

With `Cn1cccc1-c1cc(O)c2ncccc2c1O`, the melting point is 142 to 143 °C.

For the compound `Cc1c(O)c(=O)[nH]c2cc(Cl)ccc2c1=O`, the melting point was in the range of 277 to 279 °C.

Take `COC(=O)C1=C(O)c2c(c3cc(C)ccc3n2C)S(=O)(=O)N1C`: the melting point fell in the range of 144 to 145 °C.

In the case of `O=C(CC[C@H]1CC1(c1ccccc1)c1ccccc1)Oc1ccc([N+](=O)[O-])cc1`, the melting point lay in the range of 76 to 77 °C.

Turning to `CCn1cc(C(=O)NCc2ccc(Cl)cc2)c(=O)c2cc(Br)sc21`, the melting point lay within 196 to 197 °C.

Compound `CC(C)(C)OC(=O)CN1CCC(CNC(=O)c2cc(Cl)c(N)[nH]c2=O)CC1` had a melting point of 200 to 203 °C.

In turn, `CN1Cc2c(C#N)ncn2-c2ccc(F)cc2C1=O` returned a melting point of 236 to 237 °C.

For the compound `CCCc1c(OCCCBr)ccc(C(C)=O)c1O`, the melting point lay within 38 to 40 °C.

In the case of `COc1c(Sc2ccccc2)c2cccnc2n1-c1ccccc1`, the melting point lay within 86 to 87.5 °C.

Compound `OCc1ncc(-c2ccc(Cl)cc2)o1` yielded a melting point of 100 to 104 °C.

`COc1c(CN)c2c(c3c1OC(C)(C)C3)C(c1ccccc1)=NC(C)(C)C2` came in with a melting point of 140 to 142 °C.

Take `CCc1cc([N+](=O)[O-])c(N)c([N+](=O)[O-])c1C`: the melting point is 101 to 102 °C.

The compound `O=S(=O)(Nc1cccc(Br)n1)c1cc(S(=O)(=O)Nc2cccc(Br)n2)c2ccccc2c1` registered a melting point of 205 to 208 °C.

On to `CC1=C(/C=C/S(=O)(=O)NC(C)C)[C@H](c2cccc([N+](=O)[O-])c2)C(C(=O)O[C@H](C)c2ccccc2)=C(C)N1`, for which the melting point is 198 to 201 °C.

With `CCCCN(CCCC)C(=O)N1CCc2ccc(S(=O)(=O)NC(=O)NC3CCCCC3)cc2CC1`, the melting point is 118 to 120 °C.

Compound `Cc1nccc2[nH]c(=O)ccc12` registered a melting point of 235 to 237 °C.

`NC12CC=CCC1CCc1ccc(O)cc12` (stereo not drawn) gave a melting point of 156 to 161 °C.

Regarding `CCCC(=O)c1cnc(C(CC2CCCC2)c2ccc(S(C)(=O)=O)cc2)[nH]1` (stereo not drawn), the melting point fell in the range of 159 to 163 °C.

The compound `CCCCS(=O)(=O)NC1Cc2ccc(C3=NNC(=O)C(c4ccccc4)C3)cc2C1` (stereo not drawn) yielded a melting point of 216 to 217 °C.

Regarding `Cc1nc(-c2c(Cl)cc(O)cc2Cl)oc1C`, the melting point fell in the range of 228 to 229 °C.

`Nc1cc(NC(=O)CCCCl)c(Cl)cc1Cl` yielded a melting point of 125 to 128 °C.

`N#CCc1cccc(C#CCOc2ccc(Br)cn2)c1` yielded a melting point of 121 to 123 °C.

For `CCn1ncc2c(ON=C(C)C)c(C(=O)c3ccccc3)cnc21`, the melting point is 115 to 116 °C.

Turning to `COc1ccc2c3ccc(OC)cc3n(-c3ccccc3OC)c2c1`, the melting point was 148 °C.

In turn, `N#Cc1cn(-c2ccc([N+](=O)[O-])c(N)c2)cc1-c1ccccc1` came in with a melting point of 193 to 194 °C.

For the compound `CCOc1ccc(Nc2nc3nc[nH]c3c(=O)[nH]2)cn1`, the melting point is over 350 °C.

In turn, `O=C1c2cccc(-n3c(=O)[nH]c4ncccc4c3=O)c2C2CCCCN12` (stereo not drawn) came in with a melting point of over 290 °C.

In turn, `Cn1nc(C(=O)O)c(=O)n(-c2ccccc2)c1=O` returned a melting point of 195 to 198 °C.

On to `CCC(NC(=O)c1c(NC(C)=O)c(NC(C)=O)cc2c1OCCO2)N1CCCCC1` (stereo not drawn), for which the melting point is over 260 °C.

In the case of `CC(C)(C)N(Cc1ccccc1)CC(O)c1ccc(OCc2ccccc2)c(N)c1` (stereo not drawn), the melting point fell in the range of 68 to 69 °C.

Consider `CCOCCc1c(-c2ccccc2)nc(Br)n2ncnc12`, for which the melting point lay within 159 to 160 °C.

`CCCCOC(=O)c1nc(Cl)c2ccc(OC(C)C)cc2c1O` displayed a melting point of 116 to 118 °C.

For `CC(C)(C)C1=C(C(=O)OCc2ccc([N+](=O)[O-])cc2)N2C(=O)C(C)(C)C2O1` (stereo not drawn), the melting point lay in the range of 119 to 120 °C.

For `COC1OCC[C@@H]1NC(=O)[C@H](CC(C)C)NC(=O)[C@H](CC(C)C)NC(=O)[C@H](CC(C)C)NC(=O)OCc1ccccc1` (stereo partly drawn), the melting point lay within 210 to 212 °C.

In the case of `CCCOC(=O)c1c(CBr)nc2cc(OC)c(OC)cc2c1-c1ccc(OC)c(OC)c1`, the melting point is 144 to 145 °C.

`COc1ccc(S(=O)(=O)Nc2cccnc2Nc2ccc(Oc3ccccc3)cc2)cc1` gave a melting point of 174 to 176 °C.

Turning to `CC(CN(C)C)Nc1ccnc2cc3c(cc12)OCO3` (stereo not drawn), the melting point was in the range of 71 to 72 °C.

`O=S(=O)(Nc1ccc(Cl)cc1C(=NOCc1ccc(Cl)c(Cl)c1)c1ccccc1)C(F)(F)F` came in with a melting point of 87 to 88 °C.

Consider `Cn1nc(-c2nc(C(N)=O)c(N)nc2-c2ccccc2)ccc1=O`, for which the melting point was over 250 °C.

`COc1ccc2c(c1)c(CC(=O)O)c(C)n2C(=O)c1ccc(F)cc1` yielded a melting point of 130 to 132 °C.

`CCSc1ccc2cc(C(C)=O)ccc2c1`: the melting point is 69 °C.

Consider `O=C(O)[C@@H]1CC[C@@H](Oc2ccccc2)c2c(-c3ccc(Cl)cc3)noc2C1` (relative stereo), for which the melting point fell in the range of 182 to 183 °C.

In turn, `COc1ccc(NC(=S)NC(=O)c2ccccc2)cc1COc1cc(Cl)cc(Cl)c1` came in with a melting point of 167 to 169 °C.

For `COc1cccc(CNC(=O)c2nc3scc(CC(=O)O)c3c(=O)[nH]2)c1`, the melting point was in the range of 228 to 229 °C.

`NS(=O)(=O)c1ccc(-c2[nH]c3ccccc3c2-c2ccc(F)cc2)cc1` displayed a melting point of 228 to 230 °C.

For `CCCc1nc2c(N)nc3cc(-c4ccccc4)ccc3c2n1NC(C)C`, the melting point is 217 to 220 °C.

`O=C(Cc1ccccc1)OC1c2ccccc2C(=O)N1c1ccc2ccc(Cl)nc2n1` (stereo not drawn) yielded a melting point of 222 to 224 °C.

For `COc1ccc2c(c1Cl)Sc1ccccc1N2C`, the melting point stood at 136 °C.

Turning to `Cc1nc(N)c2nc(C)n(CCCN)c2c1C`, the melting point was determined as 192 °C.

`CC(=O)n1nc(C2CCN(CCc3c(C)nc4c(C)cccn4c3=O)CC2)c2ccc(F)cc21` displayed a melting point of 210 °C.

`Clc1ccccc1-c1nc(-c2ccc3c(c2)OCO3)c(-c2ccc3c(c2)OCO3)[nH]1`: the melting point fell in the range of 168 to 170 °C.

For `CN1Cc2c(C#N)ncn2-c2sccc2C1=O`, the melting point lay in the range of 197 to 200 °C.

`O=C(CCc1ccc(O)c(Cl)c1)C1CCCC1` yielded a melting point of 88 to 90 °C.

`CCOC(=O)Nc1c([N+](=O)[O-])cc(C)c(C)c1[N+](=O)[O-]` gave a melting point of 51 to 54 °C.

`CCOC(=O)COc1cc(C=O)ccc1OCc1ccccc1` registered a melting point of 36 to 43 °C.

For the compound `Fc1ccc(CBr)c(I)c1`, the melting point lay in the range of 71 to 73 °C.

Compound `CCOCCOCCOc1ccc(C(=O)OC)cc1F` showed a melting point of 33 to 36.5 °C.

For `CC(C)CN1C(=O)COc2cc(F)c([N+](=O)[O-])cc21`, the melting point fell in the range of 108 to 110 °C.

Compound `CCCCNS(=O)(=O)c1cc(C(=O)O)cc(NCc2ccccc2)c1Oc1ccccc1` gave a melting point of 212 °C.

In turn, `O=c1c2ccccc2nc(-c2sc(Nc3ccccc3)nc2-c2ccccc2)n1-c1ccccc1` had a melting point of 181 to 182 °C.

As for `CC(Cc1cccc(NC(N)=O)c1)NC=O` (stereo not drawn), the melting point lay in the range of 133 to 136 °C.

On to `COc1c([N+](=O)[O-])cc2cc(-c3ccc([N+](=O)[O-])cc3)c(=O)oc2c1OC`, for which the melting point was 219 to 223 °C.

In turn, `CC(CCNC(=O)C(C#N)=Cc1cc(O)c(O)c(O)c1)NC(=O)C(C#N)=Cc1cc(O)c(O)c(O)c1` (stereo not drawn) displayed a melting point of over 300 °C.

The compound `CCOC(=O)c1ccc(-c2cnc3c(c2)N(Cc2cc(F)ccc2F)C(=O)CN3)cc1` showed a melting point of 201 to 203 °C.

The compound `CC(=O)Nc1ccc(Sc2cccn3nc(Cl)nc23)cc1` showed a melting point of 148 to 150 °C.

In turn, `O=C1N(Cc2cccc(OCc3ccccc3)c2)c2ccccc2C12COc1cc3c(cc12)CCO3` (stereo not drawn) yielded a melting point of 66 to 68 °C.

`C=CCNc1nc(NCC(=C)C)c2scc(C)c2n1` came in with a melting point of 83 °C.

In turn, `CC(=O)Nc1ccc(C(=O)O)cc1OC(C)=O` had a melting point of 219 to 221 °C.

`N#Cc1cc(C=Cc2ccc(N(c3ccccc3)c3ccccc3)cc2)c(C#N)cc1C=Cc1ccc(N(c2ccccc2)c2ccccc2)cc1` displayed a melting point of 260 °C.

Compound `O=c1nc(-c2cccs2)sc2ccccc12` returned a melting point of 158 °C.

Consider `COc1cc(OC)cc(-c2nc[nH]c2-c2ccc(N(C)C)cc2)c1`, for which the melting point was 79 to 81.1 °C.

With `CCn1c(=O)c2[nH]c(/C=C/c3cccc(OC)c3[N+](=O)[O-])nc2n(CC)c1=O`, the melting point was over 285 °C.

On to `CCCCOc1nc(O)ns1`, for which the melting point was determined as 62 °C.

`COc1ccc(-n2c(C)nc3cnccc32)cc1OC1CCCC1`: the melting point is 144 to 145 °C.

For the compound `CC(C)[C@H]1NC(=O)[C@H]1N` (relative stereo), the melting point lay within 91 to 93 °C.

`CN(C(=O)N(CF)CF)c1nc2ccccc2s1` had a melting point of 131 to 134 °C.

Take `O=C1CC(c2cccc(-n3ccnc3)c2)=Nc2cc(N3CCC4(CC3)OCCO4)c(-c3ccccc3F)cc2N1`: the melting point came out at 225 °C.

For `S=C(NCCCc1ccccc1)Nc1nccs1`, the melting point fell in the range of 126 to 128 °C.

`CCSc1cc(C#N)c(Oc2ccc(Cl)c(Cl)c2)cn1` gave a melting point of 79 to 81 °C.

For the compound `COc1ccc(-c2ccc(OC)nn2)c(OCC(O)CNC(C)(C)C)c1` (stereo not drawn), the melting point was 114 to 116 °C.
